Experimental data taken from ChEMBL document CHEMBL1143429, “One-pot synthesis and antibacterial activities of pyrazolo[4',3':5,6]pyrido[2,3-d]pyrimidine-dione derivatives” (2008).
In brackets after ≈: the same amount, converted by molar mass. Activity calls are given as the source filed them. The rule behind the calls is not given here.

Legend:
Type in all cases: functional
Pseudomonas aeruginosa = test: Antibacterial activity against Pseudomonas aeruginosa ATCC 85327 by microdilution method
Micrococcus luteus = test: Antibacterial activity against Micrococcus luteus PTCC 1110 by microdilution method
Enterococcus faecalis = test: Antibacterial activity against Enterococcus faecalis ATCC 29737 by microdilution method
Escherichia coli = test: Antibacterial activity against Escherichia coli ATCC 25922 by microdilution method
Bacillus subtilis = test: Antibacterial activity against Bacillus subtilis ATCC 465 by microdilution method
[1] = system: Staphylococcus epidermidis; test: Antibacterial activity against Staphylococcus epidermidis ATCC 12228 by microdilution method
Bacillus pumilus = test: Antibacterial activity against Bacillus pumilus PTCC 1114 by microdilution method
Staphylococcus aureus = test: Antibacterial activity against Staphylococcus aureus ATCC 25923 by microdilution method
Streptococcus mutans = test: Antibacterial activity against Streptococcus mutans PTCC 1601 by microdilution method

Row | Compound | MIC (Pseudomonas aeruginosa) [µg/mL] | MIC (Micrococcus luteus) [µg/mL] | MIC (Enterococcus faecalis) [µg/mL] | MIC (Escherichia coli) [µg/mL] | MIC (Bacillus subtilis) [µg/mL] | MIC [1] [µg/mL] | MIC (Bacillus pumilus) [µg/mL] | MIC (Staphylococcus aureus) [µg/mL] | MIC (Streptococcus mutans) [µg/mL] | Activity (Micrococcus luteus) | Activity (Enterococcus faecalis) | Activity (Bacillus subtilis) | Activity [1] | Activity (Bacillus pumilus) | Activity (Staphylococcus aureus) | Activity (Streptococcus mutans) | Activity (Pseudomonas aeruginosa) | Activity (Escherichia coli)
1 | O=c1[nH]c2c(c(=O)[nH]1)C(c1ccc(Br)cc1)c1c(-c3ccccc3)nn(-c3ccc([N+](=O)[O-])cc3)c1N2 (configuration not stated) | 32 (≈ 57.4 µM) | 2 (≈ 3.59 µM) | 4 (≈ 7.18 µM) | 4 (≈ 7.18 µM) | 8 (≈ 14.4 µM) | 32 (≈ 57.4 µM) | 4 (≈ 7.18 µM) | 4 (≈ 7.18 µM) | < 2 | – | – | – | – | – | – | – | – | –
2 | O=c1[nH]c2c(c(=O)[nH]1)C(c1ccc(Br)cc1)c1c(-c3ccccc3)nn(-c3ccccc3)c1N2 (configuration not stated) | 2 (≈ 3.9 µM) | 2 (≈ 3.9 µM) | 30 (≈ 58.6 µM) | < 2 | 2 (≈ 3.9 µM) | 2 (≈ 3.9 µM) | 2 (≈ 3.9 µM) | 58 (≈ 113 µM) | < 2 | – | – | – | – | – | – | – | – | –
3 | O=c1[nH]c(=S)[nH]c2c1C(c1ccc(Cl)cc1)c1c(-c3ccccc3)nn(-c3ccc([N+](=O)[O-])cc3)c1N2 (configuration not stated) | 16 (≈ 30.2 µM) | 3 (≈ 5.67 µM) | 12 (≈ 22.7 µM) | 6 (≈ 11.3 µM) | 4 (≈ 7.56 µM) | 6 (≈ 11.3 µM) | 4 (≈ 7.56 µM) | 6 (≈ 11.3 µM) | 8 (≈ 15.1 µM) | – | – | – | – | – | – | – | – | –
4 | O=c1[nH]c2c(c(=O)[nH]1)C(c1cccc([N+](=O)[O-])c1)c1c(-c3ccccc3)nn(-c3ccccc3)c1N2 (configuration not stated) | 2 (≈ 4.18 µM) | 2 (≈ 4.18 µM) | 2 (≈ 4.18 µM) | < 2 | 2 (≈ 4.18 µM) | 2 (≈ 4.18 µM) | 2 (≈ 4.18 µM) | 2 (≈ 4.18 µM) | < 2 | – | – | – | – | – | – | – | – | –
5 | GENTAMICIN | 8 | – | – | 4 | – | – | – | – | – | inactive | inactive | inactive | inactive | inactive | inactive | inactive | – | –
6 | O=c1[nH]c2c(c(=O)[nH]1)C(c1ccc(Cl)cc1)c1c(-c3ccccc3)nn(-c3ccc([N+](=O)[O-])cc3)c1N2 (configuration not stated) | 28 (≈ 54.6 µM) | 4 (≈ 7.8 µM) | 2 (≈ 3.9 µM) | 6 (≈ 11.7 µM) | 8 (≈ 15.6 µM) | 28 (≈ 54.6 µM) | 6 (≈ 11.7 µM) | 4 (≈ 7.8 µM) | < 2 | – | – | – | – | – | – | – | – | –
7 | O=c1[nH]c2c(c(=O)[nH]1)C(c1ccc(Cl)cc1)c1c(-c3ccccc3)nn(-c3ccccc3)c1N2 (configuration not stated) | 2 (≈ 4.27 µM) | < 2 | 32 (≈ 68.4 µM) | < 2 | 4 (≈ 8.55 µM) | 4 (≈ 8.55 µM) | 2 (≈ 4.27 µM) | 64 (≈ 137 µM) | < 2 | – | – | – | – | – | – | – | – | –
8 | O=c1[nH]c2c(c(=O)[nH]1)C(c1ccccc1)c1c(-c3ccccc3)nn(-c3ccccc3)c1N2 (configuration not stated) | 2 (≈ 4.61 µM) | < 2 | 2 (≈ 4.61 µM) | < 2 | 2 (≈ 4.61 µM) | 2 (≈ 4.61 µM) | < 2 | 2 (≈ 4.61 µM) | < 2 | – | – | – | – | – | – | – | – | –
9 | O=c1[nH]c2c(c(=O)[nH]1)C(c1ccccc1)c1c(-c3ccccc3)nn(-c3ccc([N+](=O)[O-])cc3)c1N2 (configuration not stated) | 20 (≈ 41.8 µM) | 2 (≈ 4.18 µM) | 4 (≈ 8.36 µM) | 4 (≈ 8.36 µM) | 6 (≈ 12.5 µM) | 18 (≈ 37.6 µM) | 4 (≈ 8.36 µM) | 4 (≈ 8.36 µM) | < 2 | – | – | – | – | – | – | – | – | –
10 | O=c1[nH]c(=S)[nH]c2c1C(c1ccc([N+](=O)[O-])cc1)c1c(-c3ccccc3)nn(-c3ccccc3)c1N2 (configuration not stated) | 12 (≈ 24.3 µM) | 3 (≈ 6.07 µM) | 14 (≈ 28.3 µM) | 6 (≈ 12.1 µM) | 4 (≈ 8.09 µM) | 8 (≈ 16.2 µM) | 4 (≈ 8.09 µM) | 4 (≈ 8.09 µM) | 6 (≈ 12.1 µM) | – | – | – | – | – | – | – | – | –
11 | CN(C)[C@@H]1C(O)=C(C(N)=O)C(=O)[C@@]2(O)C(O)=C3C(=O)c4c(O)cccc4[C@@](C)(O)[C@H]3C[C@@H]12 [TETRACYCLINE] | – | 4 (≈ 9 µM) | 8 (≈ 18 µM) | – | 4 (≈ 9 µM) | < 2 | 8 (≈ 18 µM) | 4 (≈ 9 µM) | 2 (≈ 4.5 µM) | – | – | – | – | – | – | – | inactive | inactive
12 | Cc1ccc(C2c3c(-c4ccccc4)nn(-c4ccc([N+](=O)[O-])cc4)c3Nc3[nH]c(=O)[nH]c(=O)c32)cc1 (configuration not stated) | 28 (≈ 56.9 µM) | 2 (≈ 4.06 µM) | 2 (≈ 4.06 µM) | 4 (≈ 8.12 µM) | 6 (≈ 12.2 µM) | 24 (≈ 48.7 µM) | 6 (≈ 12.2 µM) | 2 (≈ 4.06 µM) | < 2 | – | – | – | – | – | – | – | – | –
13 | O=c1[nH]c(=S)[nH]c2c1C(c1ccccc1)c1c(-c3ccccc3)nn(-c3ccccc3)c1N2 (configuration not stated) | 32 (≈ 71.2 µM) | 8 (≈ 17.8 µM) | 4 (≈ 8.9 µM) | 4 (≈ 8.9 µM) | 4 (≈ 8.9 µM) | 4 (≈ 8.9 µM) | 4 (≈ 8.9 µM) | 8 (≈ 17.8 µM) | < 2 | – | – | – | – | – | – | – | – | –
14 | O=c1[nH]c2c(c(=O)[nH]1)C(c1cccc([N+](=O)[O-])c1)c1c(-c3ccccc3)nn(-c3ccc([N+](=O)[O-])cc3)c1N2 (configuration not stated) | 30 (≈ 57.3 µM) | 2 (≈ 3.82 µM) | 2 (≈ 3.82 µM) | 6 (≈ 11.5 µM) | 6 (≈ 11.5 µM) | 26 (≈ 49.7 µM) | 4 (≈ 7.64 µM) | 2 (≈ 3.82 µM) | < 2 | – | – | – | – | – | – | – | – | –
15 | O=c1[nH]c(=S)[nH]c2c1C(c1ccc([N+](=O)[O-])cc1)c1c(-c3ccccc3)nn(-c3ccc([N+](=O)[O-])cc3)c1N2 (configuration not stated) | 14 (≈ 25.9 µM) | 4 (≈ 7.41 µM) | 10 (≈ 18.5 µM) | 6 (≈ 11.1 µM) | 4 (≈ 7.41 µM) | 8 (≈ 14.8 µM) | 4 (≈ 7.41 µM) | 6 (≈ 11.1 µM) | 8 (≈ 14.8 µM) | – | – | – | – | – | – | – | – | –
16 | O=c1[nH]c(=S)[nH]c2c1C(c1ccc(Cl)cc1)c1c(-c3ccccc3)nn(-c3ccccc3)c1N2 (configuration not stated) | 16 (≈ 33.1 µM) | 4 (≈ 8.26 µM) | 16 (≈ 33.1 µM) | 4 (≈ 8.26 µM) | 4 (≈ 8.26 µM) | 8 (≈ 16.5 µM) | 4 (≈ 8.26 µM) | 4 (≈ 8.26 µM) | 8 (≈ 16.5 µM) | – | – | – | – | – | – | – | – | –
17 | Cc1ccc(C2c3c(-c4ccccc4)nn(-c4ccccc4)c3Nc3[nH]c(=O)[nH]c(=O)c32)cc1 (configuration not stated) | 2 (≈ 4.47 µM) | < 2 | 2 (≈ 4.47 µM) | < 2 | 2 (≈ 4.47 µM) | 2 (≈ 4.47 µM) | 2 (≈ 4.47 µM) | 2 (≈ 4.47 µM) | < 2 | – | – | – | – | – | – | – | – | –
18 | O=c1[nH]c(=S)[nH]c2c1C(c1ccccc1)c1c(-c3ccccc3)nn(-c3ccc([N+](=O)[O-])cc3)c1N2 (configuration not stated) | 14 (≈ 28.3 µM) | 4 (≈ 8.09 µM) | 13 (≈ 26.3 µM) | 5 (≈ 10.1 µM) | 3 (≈ 6.07 µM) | 7 (≈ 14.2 µM) | 4 (≈ 8.09 µM) | 3 (≈ 6.07 µM) | 8 (≈ 16.2 µM) | – | – | – | – | – | – | – | – | –
